One may read the IC50 as the concentration needed to halve the response being measured.

The target of this assay is T1, α4β7 (adhesion of RPMI cells to CS-1) (Homo sapiens, UniProt P13612+P26010).
T1 construct: endogenous in cells
T1 sequence (P13612 34-1032): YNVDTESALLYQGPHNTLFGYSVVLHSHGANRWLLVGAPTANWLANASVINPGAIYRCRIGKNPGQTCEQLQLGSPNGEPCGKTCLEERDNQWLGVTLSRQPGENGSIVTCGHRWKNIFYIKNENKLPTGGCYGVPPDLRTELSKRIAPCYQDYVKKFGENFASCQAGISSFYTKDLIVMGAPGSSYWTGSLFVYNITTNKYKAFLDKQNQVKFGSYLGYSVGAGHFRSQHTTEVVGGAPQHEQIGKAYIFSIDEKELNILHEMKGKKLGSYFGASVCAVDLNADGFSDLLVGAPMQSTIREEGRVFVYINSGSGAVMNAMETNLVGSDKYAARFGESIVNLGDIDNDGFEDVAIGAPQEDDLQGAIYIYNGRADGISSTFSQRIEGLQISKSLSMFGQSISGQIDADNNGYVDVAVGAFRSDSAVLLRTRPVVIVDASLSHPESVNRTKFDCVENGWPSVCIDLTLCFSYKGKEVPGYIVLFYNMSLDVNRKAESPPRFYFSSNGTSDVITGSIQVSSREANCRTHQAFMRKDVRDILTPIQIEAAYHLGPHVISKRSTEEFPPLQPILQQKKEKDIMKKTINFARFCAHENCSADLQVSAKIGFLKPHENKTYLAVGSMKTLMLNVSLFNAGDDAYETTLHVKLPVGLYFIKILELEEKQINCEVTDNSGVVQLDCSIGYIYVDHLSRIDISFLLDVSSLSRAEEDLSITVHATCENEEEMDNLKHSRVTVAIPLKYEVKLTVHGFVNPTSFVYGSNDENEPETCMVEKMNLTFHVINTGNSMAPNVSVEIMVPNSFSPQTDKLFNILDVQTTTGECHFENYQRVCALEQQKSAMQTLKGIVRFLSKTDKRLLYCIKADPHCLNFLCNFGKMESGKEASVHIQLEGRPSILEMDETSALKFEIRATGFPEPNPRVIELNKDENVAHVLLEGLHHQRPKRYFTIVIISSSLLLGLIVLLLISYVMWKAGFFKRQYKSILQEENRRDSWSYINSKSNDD
T1 sequence (P26010 20-798): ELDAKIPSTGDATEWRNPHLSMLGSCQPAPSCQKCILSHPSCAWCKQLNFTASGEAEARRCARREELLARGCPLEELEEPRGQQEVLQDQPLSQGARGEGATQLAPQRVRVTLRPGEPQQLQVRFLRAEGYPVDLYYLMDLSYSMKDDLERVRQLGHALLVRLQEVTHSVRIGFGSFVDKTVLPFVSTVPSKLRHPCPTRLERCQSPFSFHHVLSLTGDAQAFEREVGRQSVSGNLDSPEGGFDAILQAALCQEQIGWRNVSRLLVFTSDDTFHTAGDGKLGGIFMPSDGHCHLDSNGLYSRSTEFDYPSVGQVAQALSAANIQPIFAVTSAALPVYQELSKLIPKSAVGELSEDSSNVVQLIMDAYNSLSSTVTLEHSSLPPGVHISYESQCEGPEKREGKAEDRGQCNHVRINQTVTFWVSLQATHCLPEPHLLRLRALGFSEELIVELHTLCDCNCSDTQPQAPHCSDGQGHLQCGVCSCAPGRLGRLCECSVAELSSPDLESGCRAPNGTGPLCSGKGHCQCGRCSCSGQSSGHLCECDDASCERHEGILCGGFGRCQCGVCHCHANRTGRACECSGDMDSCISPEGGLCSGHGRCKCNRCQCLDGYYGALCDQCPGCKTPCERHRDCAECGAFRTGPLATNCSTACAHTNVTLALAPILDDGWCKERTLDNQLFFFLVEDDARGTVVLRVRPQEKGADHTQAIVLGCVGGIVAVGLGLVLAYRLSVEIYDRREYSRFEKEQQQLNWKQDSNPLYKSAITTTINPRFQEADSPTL
The experiment in a line: RPMI-CS-1 cell adhesion assay. Type of assay: cell-based. The conditions noted are these: adhesion of RPMI B-cell line (expresses α4β7) to CS-1 peptide coated microwells; read-out: RPMI-CS-1 IC50 value range.
Regarding `COc1ccccc1-c1ccc(C[C@H](NC(=O)c2ccc(NC(=O)c3c(Cl)cccc3Cl)cc2)C(=O)O)cc1` [Example 107], the IC50 is 1 to 5 µM.
The figure for `COc1cccc(OC)c1-c1ccc(C[C@H](NC(=O)c2cccc(C#N)c2)C(=O)O)cc1` [Example 282] is 1 to 5 µM.
The figure for `COc1ccccc1-c1ccc(C[C@H](NC(=O)c2ccc(Cl)cc2Cl)C(=O)O)cc1` [Example 84] is 1 to 5 µM; for `O=C(NCCO)c1ccccc1-c1ccc(C[C@H](NC(=O)c2c(Cl)cccc2Cl)C(=O)O)cc1` [Example 56, N-(2,6-Dichlorobenzoyl)-4-[2-[N-(2-hydroxyethyl)carbamoyl]phenyl]-L-phenylalanine] it is 0.3 to 1 µM; for `C[S+]([O-])c1ccccc1-c1ccc(C[C@H](NC(=O)c2c(Cl)cccc2Cl)C(=O)O)cc1` (single isomer, unassigned) [Example 152C, N-(2,6-dichloro-benzoyl)-4-[2-(methylsulfinyl)phenyl]-L-phenylalanine] it is 0.3 to 1 µM.
With `O=C(NCCCO)c1ccccc1-c1ccc(C[C@H](NC(=O)c2c(Cl)cccc2Cl)C(=O)O)cc1` [Example 57, N-(2,6-Dichlorobenzoyl)-4-[2-[N-(3-hydroxypropyl)carbamoyl]phenyl]-L-phenylalanine] the figure was 1 to 5 µM; with `COc1cccc(N(C)C)c1-c1ccc(C[C@H](NC(=O)c2c(Cl)cccc2Cl)C(=O)O)cc1` [Example 29, N-(2,6-Dichlorobenzoyl)-4-[2-(N,N-dimethylamino)-6-methoxyphenyl]-L-phenylalanine], 1 to 5 µM.
Consider `COc1cc(Cl)cc(OC)c1-c1ccc(C[C@H](NC(=O)c2c(Cl)cccc2Cl)C(=O)O)cc1` [Example 12, N-(2,6-Dichlorobenzoyl)-4-(4-chloro-2,6-dimethoxyphenyl)-L-phenylalanine], for which the concentration for half-maximal inhibition (IC50) was less than 0.3 µM.
With `CCCCNC(=O)c1ccccc1-c1ccc(C[C@H](NC(=O)c2c(Cl)cccc2Cl)C(=O)O)cc1` [Example 55, N-(2,6-Dichlorobenzoyl)-4-[2-(N-n-butylcarbamoyl)phenyl]-L-phenylalanine] the figure was 1 to 5 µM; with `COc1cccc(O)c1-c1ccc(C[C@H](NC(=O)c2c(Cl)cccc2Cl)C(=O)O)cc1` [Example 31, N-(2,6-Dichlorobenzoyl)-4-(2-hydroxy-6-methoxyphenyl)-L-phenylalanine], less than 0.3 µM.
The figure for `O=Cc1ccccc1-c1ccc(C[C@H](NC(=O)c2c(Cl)cccc2Cl)C(=O)O)cc1` [Example 45, N-(2,6-Dichlorobenzoyl)-4-(2-formylphenyl)-L-phenylalanine] is less than 0.3 µM; for `COc1cccc(-c2ccc(C[C@H](NC(=O)c3c(Cl)cccc3Cl)C(=O)O)cc2)c1` [Example 119] it is greater than 5 µM; for `COc1ccccc1-c1ccc(C[C@H](NC(=O)c2c(Cl)cccc2Cl)C(=O)NO)cc1` [Example 269, N-(2,6-Dichlorobenzoyl)-4-(2-methoxyphenyl)-L-phenylalanine N-hydroxyamide] it is greater than 5 µM.
With `O=C(N[C@@H](Cc1ccc(-c2ccccc2OCc2ccccn2)cc1)C(=O)O)c1c(Cl)cccc1Cl` [Example 38] the figure was 0.3 to 1 µM.
In the case of `O=C(N[C@@H](Cc1ccc(-c2ccccc2)cc1)C(=O)O)c1ccccc1[N+](=O)[O-]` [Example 110], the 50% inhibitory concentration (IC50) was greater than 5 µM.
The figure for `COc1ccccc1-c1ccc(C[C@H](NC(=O)c2ccc(O)cc2Cl)C(=O)O)cc1` [Example 209] is less than 0.3 µM; for `CN1CCCC(COc2ccccc2-c2ccc(C[C@H](NC(=O)c3c(Cl)cccc3Cl)C(=O)O)cc2)C1` (stereo partly drawn) [Example 44] it is 0.3 to 1 µM.
With `CN(C)CCOc1ccc2c(c1-c1ccc(C[C@H](NC(=O)c3c(Cl)cccc3Cl)C(=O)O)cc1)OCO2` [Example 234, N-(2,6-Dichlorobenzoyl)-4-[2,3-methylenedioxy-6-[2-(N,N-dimethylamino)ethoxy]phenyl]-L-phenylalanine] the figure was less than 0.3 µM.
